Laboratory results published in patent US20020137929A1, “1 - (3-heterocyclylphenyl) isothiourea, -isourea, -guanidine and -amidine herbicidal agents” (Intellectual Property Department, BASF Aktiengesellschaft, priority 1998, published 2002).

What was measured:
[1] = tested on: GLXMAW (Soybean, Williams); assay: Preemergence herbicidal evaluation; format: in vivo, Glycine max, (L.) Merr. cv Williams; conditions: rated 4-5 weeks after treatment
In short: (§1)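 Greenhouse preemergence test: seed-soil mix sown on ~1 inch soil; aqueous acetone spray at equivalent of ~0.0156–0.500 kg/ha; greenhouse-held and watered; scored 0–9 visually at 4–5 weeks.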

[2] = tested on: TRZAWR (Wheat, Winter, cv Riband); assay: Postemergence herbicidal evaluation; format: in vivo, Triticum aestivum
In short: (§2)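 ~2-wk seedlings; postemergence spray, 40 psi; vehicle 1:1 acetone:water + 0.5% Tween 20; rate ≈0.0156–0.500 kg/ha; greenhouse hold; scored 4–5 wk after treatment, 0–9 scale vs control; repeat tests averaged.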

AMBEL (Ragweed, Common) [3] = assay: Postemergence herbicidal evaluation; format: in vivo, Ambrosia artemisifolia
In short: as §2

ABUTH (Velvetleaf) = assay: Preemergence herbicidal evaluation; format: in vivo, Abutilon theophrasti; conditions: rated 4-5 weeks after treatment
In short: as §1

[4] = tested on: IPOHE (Morningglory, Ivyleaf); assay: Preemergence herbicidal evaluation; format: in vivo, Ipomoea hederacea; conditions: rated 4-5 weeks after treatment
In short: as §1

ECHCG (Barnyardgrass) = assay: Postemergence herbicidal evaluation; format: in vivo, Echinochloa crus-galli
In short: as §2

[5] = tested on: GLXMAW (Soybean, Williams); assay: Postemergence herbicidal evaluation; format: in vivo, Glycine max, (L.) Merr. cv Williams
In short: as §2

[6] = tested on: CHEAL (Lambsquarters, Common); assay: Preemergence herbicidal evaluation; format: in vivo, Chenopodium album; conditions: rated 4-5 weeks after treatment
In short: as §1

AMBEL (Ragweed, Common) [7] = assay: Preemergence herbicidal evaluation; format: in vivo, Ambrosia artemisifolia; conditions: rated 4-5 weeks after treatment
In short: as §1

[8] = tested on: SAGPY (Arrowhead (Pygmaea)); assay: Preemergence weed control under flooded paddy conditions; format: in vivo, Sagittaria pygmaea; conditions: 0.2500 kg/ha, rated 3-4 weeks after treatment
In short: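 Silt loam, seeds in top 0.5 cm; flood held 1.5-3 cm; test cpd as acetone/water 50/50 into flood water, ~0.0313-0.500 kg/ha a.i.; greenhouse 3-4 wk; visual 0-9 score vs control.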

ORYSAT (Rice, Tebonnet) = assay: Preemergence herbicidal evaluation; format: in vivo, Oryza sativa, (L.) Tebonnet; conditions: rated 4-5 weeks after treatment
In short: as §1

CASOB (Sicklepod) [9] = assay: Preemergence herbicidal evaluation; format: in vivo, Cassia obtusifolia; conditions: rated 4-5 weeks after treatment
In short: as §1

[10] = tested on: CHEAL (Lambsquarters, Common); assay: Postemergence herbicidal evaluation; format: in vivo, Chenopodium album
In short: as §2

CASOB (Sicklepod) [11] = assay: Postemergence herbicidal evaluation; format: in vivo, Cassia obtusifolia
In short: as §2

[12] = tested on: IPOHE (Morningglory, Ivyleaf); assay: Postemergence herbicidal evaluation; format: in vivo, Ipomoea hederacea
In short: as §2

CCOC(=O)CN1C(=O)C(CC(=O)O)SC1=Nc1cc(-n2c(=O)cc(C(F)(F)F)n(C)c2=O)c(Cl)cc1Cl (centres unmarked) [Compound 33, 2-{{2,4-Dichloro-5-[3,6-dihydro-3-methyl-2,6-dioxo-4-(trifluoromethyl)-1(2H)-pyrimidinyl]phenyl}-imino}-4-oxo-3,5-thiazolidinediacetic acid, 3-ethyl ester]
Preemergence herbicidal rating GLXMAW ([1]; rate 0.0156 kg/ha): 0.0 | Preemergence herbicidal rating GLXMAW ([1]; rate 0.0313 kg/ha): 0.0 | Preemergence herbicidal rating GLXMAW ([1]; rate 0.0625 kg/ha): 0.0 | Preemergence herbicidal rating GLXMAW ([1]; rate 0.1250 kg/ha): 0.0 | Preemergence herbicidal rating GLXMAW ([1]; rate 0.2500 kg/ha): 0.0 | Postemergence herbicidal rating TRZAWR ([2]; Rate 0.0158 kg/ha): 3.5 | Postemergence herbicidal rating TRZAWR ([2]; Rate 0.0315 kg/ha): 5.5 | Postemergence herbicidal rating TRZAWR ([2]; Rate 0.0630 kg/ha): 6.0 | Postemergence herbicidal rating AMBEL (AMBEL (Ragweed, Common) [3]; Rate 0.0158 kg/ha): 9.0 | Postemergence herbicidal rating AMBEL (AMBEL (Ragweed, Common) [3]; Rate 0.0315 kg/ha): 9.0 | Postemergence herbicidal rating AMBEL (AMBEL (Ragweed, Common) [3]; Rate 0.0630 kg/ha): 9.0 | Preemergence herbicidal rating ABUTH (ABUTH (Velvetleaf); rate 0.0156 kg/ha): 0.0 | Preemergence herbicidal rating ABUTH (ABUTH (Velvetleaf); rate 0.0313 kg/ha): 0.0 | Preemergence herbicidal rating ABUTH (ABUTH (Velvetleaf); rate 0.0625 kg/ha): 9.0 | Preemergence herbicidal rating ABUTH (ABUTH (Velvetleaf); rate 0.1250 kg/ha): 9.0 | Preemergence herbicidal rating ABUTH (ABUTH (Velvetleaf); rate 0.2500 kg/ha): 9.0 | Preemergence herbicidal rating IPOHE ([4]; rate 0.0156 kg/ha): 0.0 | Preemergence herbicidal rating IPOHE ([4]; rate 0.0313 kg/ha): 0.0 | Preemergence herbicidal rating IPOHE ([4]; rate 0.0625 kg/ha): 0.0 | Preemergence herbicidal rating IPOHE ([4]; rate 0.1250 kg/ha): 0.0 | Preemergence herbicidal rating IPOHE ([4]; rate 0.2500 kg/ha): 9.0 | Postemergence herbicidal rating ECHCG (ECHCG (Barnyardgrass); Rate 0.0158 kg/ha): 2.0 | Postemergence herbicidal rating ECHCG (ECHCG (Barnyardgrass); Rate 0.0315 kg/ha): 9.0 | Postemergence herbicidal rating ECHCG (ECHCG (Barnyardgrass); Rate 0.0630 kg/ha): 9.0 | Postemergence herbicidal rating GLXMAW ([5]; Rate 0.0158 kg/ha): 7.0 | Postemergence herbicidal rating GLXMAW ([5]; Rate 0.0315 kg/ha): 8.5 | Postemergence herbicidal rating GLXMAW ([5]; Rate 0.0630 kg/ha): 8.5 | Preemergence herbicidal rating CHEAL ([6]; rate 0.0156 kg/ha): 4.0 | Preemergence herbicidal rating CHEAL ([6]; rate 0.0625 kg/ha): 7.0 | Preemergence herbicidal rating CHEAL ([6]; rate 0.1250 kg/ha): 9.0 | Preemergence herbicidal rating CHEAL ([6]; rate 0.2500 kg/ha): 9.0 | Preemergence herbicidal rating AMBEL (AMBEL (Ragweed, Common) [7]; rate 0.0156 kg/ha): 0.0 | Preemergence herbicidal rating AMBEL (AMBEL (Ragweed, Common) [7]; rate 0.0313 kg/ha): 0.0 | Preemergence herbicidal rating AMBEL (AMBEL (Ragweed, Common) [7]; rate 0.0625 kg/ha): 9.0 | Preemergence herbicidal rating AMBEL (AMBEL (Ragweed, Common) [7]; rate 0.1250 kg/ha): 9.0 | Preemergence herbicidal rating AMBEL (AMBEL (Ragweed, Common) [7]; rate 0.2500 kg/ha): 9.0 | Herbicidal rating SAGPY [8]: 0.0 | Preemergence herbicidal rating ORYSAT (ORYSAT (Rice, Tebonnet); rate 0.0156 kg/ha): 0.0 | Preemergence herbicidal rating ORYSAT (ORYSAT (Rice, Tebonnet); rate 0.0313 kg/ha): 0.0 | Preemergence herbicidal rating ORYSAT (ORYSAT (Rice, Tebonnet); rate 0.0625 kg/ha): 0.0 | Preemergence herbicidal rating ORYSAT (ORYSAT (Rice, Tebonnet); rate 0.1250 kg/ha): 0.0 | Preemergence herbicidal rating ORYSAT (ORYSAT (Rice, Tebonnet); rate 0.2500 kg/ha): 0.0 | Preemergence herbicidal rating CASOB (CASOB (Sicklepod) [9]; rate 0.0156 kg/ha): 0.0 | Preemergence herbicidal rating CASOB (CASOB (Sicklepod) [9]; rate 0.0313 kg/ha): 0.0 | Preemergence herbicidal rating CASOB (CASOB (Sicklepod) [9]; rate 0.0625 kg/ha): 0.0 | Preemergence herbicidal rating CASOB (CASOB (Sicklepod) [9]; rate 0.1250 kg/ha): 4.0 | Preemergence herbicidal rating CASOB (CASOB (Sicklepod) [9]; rate 0.2500 kg/ha): 9.0 | Postemergence herbicidal rating CHEAL ([10]; Rate 0.0158 kg/ha): 9.0 | Postemergence herbicidal rating CHEAL ([10]; Rate 0.0315 kg/ha): 9.0 | Postemergence herbicidal rating CHEAL ([10]; Rate 0.0630 kg/ha): 9.0 | Postemergence herbicidal rating CASOB (CASOB (Sicklepod) [11]; Rate 0.0158 kg/ha): 0.0 | Postemergence herbicidal rating CASOB (CASOB (Sicklepod) [11]; Rate 0.0315 kg/ha): 1.0 | Postemergence herbicidal rating CASOB (CASOB (Sicklepod) [11]; Rate 0.0630 kg/ha): 5.0 | Postemergence herbicidal rating IPOHE ([12]; Rate 0.0158 kg/ha): 9.0 | Postemergence herbicidal rating IPOHE ([12]; Rate 0.0315 kg/ha): 9.0 | Postemergence herbicidal rating IPOHE ([12]; Rate 0.0630 kg/ha): 9.0
